Earlier results, collected in patent US8101207B2, “Composition containing medicine extremely slightly soluble in water and method for preparation thereof” (Kowa Co., Ltd., priority 2003, dated 2012).

What was measured:
interleukin-1β = settings: known from Japanese Patent Application Laid-Open (kokai) No. 12-198776

CSc1ccc(-c2nn(Cc3ccccc3)c(=O)cc2-c2ccc(Cl)cc2)cc1 [Compound A, 2-benzyl-5-(4-chlorophenyl)-6-[4-(methylthio)phenyl]-2H-pyridazin-3-one]
solubility in water: very low solubility | effect of inhibiting production of interleukin-1β (interleukin-1β): excellent effect
